Values of other authors, collected in patent US11065266B2, “Method of treating melanoma using an inhibitor of an atypical protein kinase C” (UNIVERSITY OF SOUTH FLORIDA, priority 2016, dated 2021).

Biological target: T1, PKC-ζ (Homo sapiens, UniProt Q05513)
T1 sequence (Q05513 1-592): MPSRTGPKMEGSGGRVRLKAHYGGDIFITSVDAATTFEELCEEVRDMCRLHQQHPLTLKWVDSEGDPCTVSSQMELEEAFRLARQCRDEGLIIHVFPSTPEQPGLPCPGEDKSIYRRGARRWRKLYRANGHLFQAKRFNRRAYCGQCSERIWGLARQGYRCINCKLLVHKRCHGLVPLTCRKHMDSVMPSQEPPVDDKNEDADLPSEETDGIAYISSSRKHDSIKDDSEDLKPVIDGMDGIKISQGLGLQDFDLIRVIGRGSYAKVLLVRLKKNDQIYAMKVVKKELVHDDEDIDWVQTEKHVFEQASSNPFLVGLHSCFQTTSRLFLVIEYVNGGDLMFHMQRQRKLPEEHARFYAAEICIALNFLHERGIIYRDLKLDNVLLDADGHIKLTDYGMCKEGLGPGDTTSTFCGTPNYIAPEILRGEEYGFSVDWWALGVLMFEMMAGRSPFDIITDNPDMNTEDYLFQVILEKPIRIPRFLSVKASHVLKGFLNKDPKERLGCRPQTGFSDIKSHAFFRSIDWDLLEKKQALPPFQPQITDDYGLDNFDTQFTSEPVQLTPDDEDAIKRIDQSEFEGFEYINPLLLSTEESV
Settings: at 10 μM; cited from earlier work

SMILES: CC(=O)C1=C(O)CCC1=O [ACPD, 2-acetyl-1,3-cyclopentanedione]
- inhibition of PKC-ζ: about 60%
